Measurements taken from patent publication US20040142864A1, “Crystal structure of PIM-1 kinase” (Plexxikon, Inc., priority 2002, published 2004).

Biological target: PIM-1 (Homo sapiens, UniProt P11309)
Experiment: PY20 AlphaScreen kit kinase inhibition assay

PIM-1, sequence (P11309 whole entry): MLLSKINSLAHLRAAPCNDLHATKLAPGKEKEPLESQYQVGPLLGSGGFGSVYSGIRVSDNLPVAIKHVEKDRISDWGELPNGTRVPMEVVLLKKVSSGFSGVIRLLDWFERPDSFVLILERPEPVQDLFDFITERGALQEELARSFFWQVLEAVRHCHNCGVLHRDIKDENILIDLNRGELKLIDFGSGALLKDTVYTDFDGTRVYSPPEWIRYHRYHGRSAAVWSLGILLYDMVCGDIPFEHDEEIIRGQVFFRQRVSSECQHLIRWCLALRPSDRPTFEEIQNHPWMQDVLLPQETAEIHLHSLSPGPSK

Structure (SMILES): CSc1cccc(Nc2ncc3cc(-c4c(Cl)cccc4Cl)c(=O)n(C)c3n2)c1
- IC50: 10 nM
